Counter-ions that a name gives are not always drawn.

The results in this text go back to patent US11691950B2, “Isoquinoline-steroid conjugates and uses thereof” (priority 2018, dated 2023).

One assay has as its system TOX. As to the kind of experiment: TOX assay. The format is cell-based. To be noted: HCl salt. Here is the method: Inhibition of various kinases was assayed.
A further assay has as its system TNFα. As to the kind of experiment: TNFα secretion assay (LPS-treated RAW264.7 macrophages, ELISA). To be noted: RAW264.7 cells, 4 hrs. The format is cell-based, murine. On the procedure: The TNFα assay quantifies secreted TNFα from RAW264.7 immortalized murine macrophages as an indicator of inflammation. The cells were concurrently treated with LPS (as an inducer of inflammation) and a titration of test molecules or control compounds for 4 hrs. After the incubation period, the media was harvested and assayed via an ELISA assay. ODs of experimental samples are fit to those of a standard curve to extrapolate the TNFα concentration. IC50 values were calculated by fitting a curve to experimental values with the controls as the top and bottom limits of the curve. Selected compounds provided herein were subjected to this assay.
(An ELISA detects its analyte on a solid surface through an enzyme-linked reagent.)

In the next assay the test system is myeloperoxidase activity. Put plainly: Myeloperoxidase (MPO) activity after intravitreal LPS in mice. The note with it: dosed at 0 and 6 hours, collected 24 hours. The format is in vivo, C57B16 male mice. Here is the method: Adult C57B16 male mice were injected with 2 ng of lipopolysaccharide (LPS) intravitreally. The mice were then dosed with vehicle, compounds or control treatments (0.07% w/w, 0.02% w/w or 0.007% w/w) at times 0 and 6 hours post-injection. Aqueous humor (AH) and vitreous humor (VH) was collected 24 hours after injection of LPS and assayed for MPO activity by ELISA. Data is a compilation of two separate experiments. Statistical analysis was carried out on GraphPad prism using a multiple comparisons 1-way ANOVA with uncorrected Dunn's test. Results are shown in FIG. 5 (aqueous humor) and FIG. 6 (vitreous humor). In FIG. 5 and FIG. 6, Dex refers to dexamethasone, Compound A refers to (S)-3-amino-2-(4-(hydroxymethyl)phenyl)-N-(isoquinolin-6-yl)propanamide, *refers to p<0.05, and **refers to p<0.005. MPO levels correspond to levels of neutrophil infiltration. In the context of non-infectious inflammatory events, neutrophils cause robust levels of damage to tissues.

With `C[C@@H]1C[C@H]2[C@@H]3CCC4=CC(=O)C=C[C@]4(C)[C@@]3(F)[C@@H](O)C[C@]2(C)[C@@]1(O)C(=O)COC(=O)c1ccc(C(=O)OCc2ccc([C@@H](CN)C(=O)Nc3ccc4cnccc4c3)cc2)cc1` [Example 66, 4-((S)-3-amino-1-(isoquinolin-6-ylamino)-1-oxopropan-2-yl)benzyl (2-((8S,9R,10S,11S,13S,14S,16R,17R)-9-fluoro-11,17-dihydroxy-10,13,16-trimethyl-3-oxo-6,7,8,9,10,11,12,13,14,15,16,17-dodecahydro-3H-cyclopenta[a]phenanthren-17-yl)-2-oxoethyl) terephthalate dihydrochloride], in the assay on TOX, the IC50 was found to be 100 µM.
For the compound `CC(C)(C)OC(=O)NC[C@@H](C(=O)Nc1ccc2cnccc2c1)c1ccc(COC(=O)CCC(=O)OCC(=O)[C@@]2(O)CC[C@H]3[C@@H]4CCC5=CC(=O)C=C[C@]5(C)[C@H]4[C@@H](O)C[C@@]32C)cc1` [Example 14], the IC50 in the assay with TNFα was found to be 0.621 µM.
Consider `C[C@@H]1C[C@H]2[C@@H]3CCC4=CC(=O)C=C[C@]4(C)[C@@]3(F)[C@@H](O)C[C@]2(C)[C@@]1(O)C(=O)COC(=O)CCC(=O)OCc1ccc([C@@H](CN)C(=O)Nc2ccc3cnccc3c2)cc1` [Example 25], for which the IC50 in the assay with TOX was determined as 100 µM.
As to `CC1(C)O[C@@H]2C[C@H]3[C@@H]4CCC5=CC(=O)C=C[C@]5(C)[C@@]4(F)[C@@H](O)C[C@]3(C)[C@]2(C(=O)COC(=O)CCC(=O)OCc2ccc([C@@H](CN)C(=O)Nc3ccc4cnccc4c3)cc2)O1` [Example 33], the half-inhibitory concentration (IC50) in the assay with TOX amounted to 55.2 µM. Besides, in the assay with myeloperoxidase activity (FIG. 5), the “myeloperoxidase activity in aqueous humor” value is “inhibiting effect”. Also, the “myeloperoxidase activity in vitreous humor” value in the assay on myeloperoxidase activity (FIG. 6) is reported as “inhibiting effect”.
As for `C[C@@H]1C[C@H]2[C@@H]3CCC4=CC(=O)C=C[C@]4(C)[C@@]3(F)[C@@H](O)C[C@]2(C)[C@@]1(O)C(=O)COC(=O)C[C@H](N)C(=O)OCc1ccc([C@@H](CN)C(=O)Nc2ccc3cnccc3c2)cc1` [Example 83, 1-(4-((S)-3-amino-1-(isoquinolin-6-ylamino)-1-oxopropan-2-yl)benzyl) 4-(2-((8S,9R,10S,11S,13S,14S,16R,17R)-9-fluoro-11,17-dihydroxy-10,13,16-trimethyl-3-oxo-6,7,8,9,10,11,12,13,14,15,16,17-dodecahydro-3H-cyclopenta[a]phenanthren-17-yl)-2-oxoethyl) L-aspartate trihydrochloride], in the assay on TOX, the IC50 came to 100 µM.
The same measure, in the same setting: then `C[C@@H]1C[C@H]2[C@@H]3CCC4=CC(=O)C=C[C@]4(C)[C@@]3(F)[C@@H](O)C[C@]2(C)[C@@]1(O)C(=O)COC(=O)C1CC1C(=O)OCc1ccc([C@@H](CN)C(=O)Nc2ccc3cnccc3c2)cc1` (some centres unmarked) [Example 27], with 100 µM.

What is called IC50 is the point on the concentration scale where inhibition reaches its midpoint.
